From patent US20040062807A1, “Biocide compositions and a method for their production” (priority 2001, published 2004) come the findings set out here.

The subject of assay [1] is unidentified mold. In words: Growth of mold on petri dishes with fungicide composition in growth media (diameter). Type of assay: cell-based. As to conditions: 25° C., 3-5 days. The procedure: The fungus was allowed to grow at 25° C. for 3-5 days. At the end of this period, the diameter of the fungus on the plate was measured. All results were duplicated to assure accuracy.

Assay [2] relates to fungus spores. In words: Fungus spore germination in growth media with fungicide composition (colony count). Type of assay: cell-based, unidentified mold. As to conditions: 3-5 days incubation. The procedure: The fungus was allowed to grow at 25° C. for 3-5 days. At the end of this period, the diameter of the fungus on the plate was measured. All results were duplicated to assure accuracy. In a second series of experiments, the growth of fungus spores was measured under the same conditions as those described above. The number of colonies were measured, again after 3-5 days of incubation.

[3] abbreviates: 15% composition in growth media.
[4] abbreviates: 25% composition in growth media.

For `O=C([O-])[O-].[Ca+2]` [Calcium carbonate], the “Growth of Fungus (CFU diameter)” value in assay [1] (5% composition in growth media), in assay [1] (setting [3]) and in assay [1] (setting [4]) was 9 cm in each case. Besides, the “Fungus Germination (CFU per ml)” value in assay [2] (5% composition in growth media) turned out to be 100 CFU per ml; in assay [2] (setting [3]) it was 150 CFU per ml; in assay [2] (setting [4]), 110 CFU per ml.
